# Assay results taken from paper PMC9118553, “In Vivo Bioconcentration of 10 Anionic Surfactants in Rainbow Trout Explained by In Vitro Data on Partitioning and S9 Clearance” (Environmental Science & Technology, 2022).
# “And” between values parts separate entries of the source, which are not always exact repeats. Equal values may be shown once.
# Assays:
# [1] = Baseline screening BCF (0.0125 DMLW, equilibrium partitioning, no biotransformation)
# In short: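 Calculated rather than measured: baseline screening BCF derived as 0.0125 × DMLW (membrane-lipid/water distribution ratio), assuming equilibrium partitioning and no biotransformation. Expressed as log L kg-1 wet weight.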
# [2] = tested on: rainbow trout; assay: In vivo bioconcentration experiment with a mixture of anionic surfactants, flow-through aquaria, 10 °C, pH 7.8; conditions: for Concentration in fish: individual fish;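 for Uptake rate constant kU: L kg-1 h-1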
# In short: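 Juvenile rainbow trout exposed to a 10-surfactant mixture for 4 days, then 7-day depuration, in flow-through aquaria at 10 °C, pH 7.8. Whole-fish homogenates and water analysed by LC-MS/MS against BEHP internal standard. kU, kT and BCF (=kU/kT) estimated by joint Bayesian model including water-concentration uncertainty.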
# [3] = determined using nominal concentrations in water
# [4] = from measured concentrations in water, Bayesian estimate, 95% credible interval in brackets
# [5] = measured concentrations in water, simpler estimation method (Text S3), 95% confidence intervals in brackets
compound,measurement,setting,value
"CCCCCCCCCCCCCCS(=O)(=O)O [C14SO3, tetradecylsulfonate]",Log difference (baseline BCF vs BCF),[1],1.58 L kg-1 ww
same,Log baseline BCF,[1]; determined as 0.0125 DMLW,3.05 L kg-1 ww
same,BCF,[2]; [3],32 L kg-1 ww
same,Elimination rate constant kT,[2]; [3],0.028 h⁻¹
same,Uptake rate constant kU,[2]; [3],0.90 L/kg/h
same,Log BCF,[2]; determined with measured concentrations in water,1.47 L kg-1 ww
same,Concentration in fish,"[2]; elimination phase, 97 h",113 ng g-1 ww and 118 ng g-1 ww and 164 ng g-1 ww
same,Concentration in fish,"[2]; elimination phase, 98 h",130 ng g-1 ww and 119 ng g-1 ww and 109 ng g-1 ww
same,Concentration in fish,"[2]; elimination phase, 100 h",185 ng g-1 ww and 93 ng g-1 ww and 114 ng g-1 ww
same,Concentration in fish,"[2]; elimination phase, 103 h",94 ng g-1 ww and 194 ng g-1 ww and 108 ng g-1 ww
same,Concentration in fish,"[2]; elimination phase, 120 h",62 ng g-1 ww and 81 ng g-1 ww and 50 ng g-1 ww
same,Concentration in fish,"[2]; elimination phase, 128 h",60 ng g-1 ww and 45 ng g-1 ww and 68 ng g-1 ww
same,Concentration in fish,"[2]; elimination phase, 144 h",42 ng g-1 ww and 31 ng g-1 ww and 70 ng g-1 ww
same,Concentration in fish,"[2]; elimination phase, 168 h",30 ng g-1 ww and 28 ng g-1 ww and 16.5 ng g-1 ww
same,Concentration in fish,"[2]; elimination phase, 192 h",11.9 ng g-1 ww and 8.6 ng g-1 ww and 12.7 ng g-1 ww
same,Concentration in fish,"[2]; elimination phase, 264 h",6.6 ng g-1 ww and 4.8 ng g-1 ww and 1.75 ng g-1 ww
same,Concentration in fish,"[2]; exposure phase, 1 h",38 ng g-1 ww and 7.5 ng g-1 ww and 72 ng g-1 ww
same,Concentration in fish,"[2]; exposure phase, 2 h",11.3 ng g-1 ww and 11.7 ng g-1 ww and 6.8 ng g-1 ww
same,Concentration in fish,"[2]; exposure phase, 3 h",16.0 ng g-1 ww and 19.9 ng g-1 ww and 15.9 ng g-1 ww
same,Concentration in fish,"[2]; exposure phase, 4 h",27 ng g-1 ww and 153 ng g-1 ww and 415 ng g-1 ww
same,Concentration in fish,"[2]; exposure phase, 6 h",41 ng g-1 ww and 39 ng g-1 ww and 32 ng g-1 ww
same,Concentration in fish,"[2]; exposure phase, 24 h",101 ng g-1 ww and 111 ng g-1 ww and 80 ng g-1 ww
same,Concentration in fish,"[2]; exposure phase, 48 h",152 ng g-1 ww and 155 ng g-1 ww and 117 ng g-1 ww
same,Concentration in fish,"[2]; exposure phase, 72 h",180 ng g-1 ww and 141 ng g-1 ww and 103 ng g-1 ww
same,Concentration in fish,"[2]; exposure phase, 96 h",168 ng g-1 ww and 150 ng g-1 ww and 178 ng g-1 ww
same,Elimination rate constant kT,[2]; [4],0.024 (0.022–0.026) h^–1
same,Uptake rate constant kU,[2]; [4],0.70 (0.61–0.80) L kg^–1 ww h^–1
same,diffusion coefficient (D) in the epithelial membrane of the gills,[2]; in vivo,3.1 × 10^–8 m h^–1
same,BCF (kinetic),"[2]; kinetic BCF from measured concentrations in water, 95% credible interval in brackets",30 (26–33) L kg^–1 ww
same,BCF,[2]; [5],28 (8) L kg-1 ww
same,Elimination rate constant kT,[2]; [5],0.026 (5) h-1
same,Uptake rate constant kU,[2]; [5],0.73 (6) L kg-1 ww h-1
